Reference: article PMC12881674, “Activation of TRPV3 channels in bladder cancer cells stimulates ATP release” (Molecular Pharmacology, 2025)
Where two headings read alike, the source gives them in different places.

Molecular target: T1, TRPV3 in KU-19-19 cells (Homo sapiens, UniProt Q8NET8)
T1 construct: host or cells: KU-19-19
T1 sequence (Q8NET8 1-790): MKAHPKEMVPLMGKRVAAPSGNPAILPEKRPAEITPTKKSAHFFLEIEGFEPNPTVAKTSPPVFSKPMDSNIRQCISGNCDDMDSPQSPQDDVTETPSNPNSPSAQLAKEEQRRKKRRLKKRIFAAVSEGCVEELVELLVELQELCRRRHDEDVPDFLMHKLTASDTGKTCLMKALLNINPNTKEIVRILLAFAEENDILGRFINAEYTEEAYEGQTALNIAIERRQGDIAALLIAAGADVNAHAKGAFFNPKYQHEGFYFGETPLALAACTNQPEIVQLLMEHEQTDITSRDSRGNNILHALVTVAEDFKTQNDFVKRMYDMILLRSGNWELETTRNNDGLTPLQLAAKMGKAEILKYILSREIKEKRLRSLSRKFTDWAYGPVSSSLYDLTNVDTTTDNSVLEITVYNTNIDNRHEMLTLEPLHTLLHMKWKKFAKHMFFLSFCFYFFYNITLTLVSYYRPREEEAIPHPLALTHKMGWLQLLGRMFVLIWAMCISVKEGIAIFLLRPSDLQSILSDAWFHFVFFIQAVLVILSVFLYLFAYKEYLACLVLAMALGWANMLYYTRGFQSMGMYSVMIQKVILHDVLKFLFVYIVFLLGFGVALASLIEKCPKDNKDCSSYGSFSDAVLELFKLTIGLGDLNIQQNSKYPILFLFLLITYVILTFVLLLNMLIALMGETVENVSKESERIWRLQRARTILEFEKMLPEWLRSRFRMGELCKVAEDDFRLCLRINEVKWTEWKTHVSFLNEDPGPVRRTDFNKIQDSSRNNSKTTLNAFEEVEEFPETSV
Test: calcium assay concentration-response in KU-19-19 cells
Format: cell-based
Details: read-out: EC50 for AV3-1-induced TRPV3 activation in KU-19-19 cells
Procedure: Supplementation of the cellular cholesterol content in KU-19-19 cells was performed by adding cholesterol-loaded methyl-β-cyclodextrin (MβCD) to the cells. Cholesterol was dissolved in ethanol (20 mg/mL) by heating at 65 °C for 15 minutes. The cholesterol solution was then added dropwise to a 250 mM MβCD solution prepared in phosphate-buffered solution (PBS; Sigma Aldrich) at a 1:4 (v/v) ratio, yielding a stock containing 200 mM MβCD-cholesterol. KU-19-19 cells were incubated for 15 minutes at 37 °C in HBS containing 2.5 mM MβCD-cholesterol. As a control, KU-19-19 cells were incubated in HBS without MβCD-cholesterol supplement under the same conditions.
All fluorometric Ca^2+ assays were performed in HBS buffer at room temperature. […] For the primary compound screening and the generation of concentration-response analyses, a robotic liquid handling station (Freedom Evo 150; Tecan) with a built-in custom-made fluorescence plate imager was used. […] Fluorescence was excited using a 470-nm light-emitting diode, and emitted light was imaged through a 515-nm–long pass filter with a cooled Zyla 5.5 camera (Andor). Fluorescence was recorded and processed under the control of the μ-Manager 2.0 gamma software (https://micro-manager.org.[28]). After recording baseline fluorescence, compounds were dispensed into the wells via the liquid handling device. […]

EC50 (cells not supplemented with cholesterol): 19 ± 1.5 µM
EC50 (cholesterol supplementation (2.5 mM MβCD-cholesterol)): 6.3 ± 1.9 µM
Compound: COC(=O)C12CN(Cc3ccccc3)CC1(C(=O)OC)CN(Cc1ccccc1)C2 (centres unmarked) [AV3-1]
